The record followed here is ChEMBL document CHEMBL1156794, “Synthesis and antimicrobial evaluation of amphiphilic neamine derivatives” (J Med Chem, 2010).

The test system of assay [1] is Staphylococcus aureus. The assay is described as follows: Antibacterial activity against MsrA pump expressing Staphylococcus aureus after 24 hrs by geometric microdilution method. The class given is functional.
Assay [2] has as its system Staphylococcus aureus. Briefly: Antibacterial activity against aminoglycoside-6'-N-acetyltransferase/2''-O-phosphoryltransferase expressing Staphylococcus aureus after 24 hrs by geometric microdilution method. Format: functional. (In broth dilution the organism is exposed to a series of concentrations in liquid medium.)
Assay [3] concerns Staphylococcus aureus. The assay is described as follows: Antibacterial activity against aminoglycoside-3'-O-phosphoryltransferase expressing Staphylococcus aureus after 24 hrs by geometric microdilution method. Format: functional.
Assay [4] concerns Staphylococcus aureus. The assay is described as follows: Antibacterial activity against aminoglycoside-4'-O-phosphoryltransferase expressing Staphylococcus aureus after 24 hrs by geometric microdilution method. Format: functional.
In assay [5] the test system is Staphylococcus aureus. The assay is described as follows: Antibacterial activity against methicillin-resistant Staphylococcus aureus ATCC 33592 clinical isolate after 24 hrs by geometric microdilution method. Format: functional. Particulars: ATCC 33592, 24 h.
Assay [6] deals with Staphylococcus aureus. The assay is described as follows: Antibacterial activity against vancomycin-resistant Staphylococcus aureus VRS-2 after 24 hrs by geometric microdilution method. Particulars: VRS-2, 24 h. The class given is functional.
For assay [7], the system named is Acinetobacter lwoffii. The assay is described as follows: Antibacterial activity against […] expressing Acinetobacter lwoffii AI.88-483 after 24 hrs by geometric microdilution method. Format: functional. Particulars: AI.88-483, 24 h.
Assay [8] deals with Pseudomonas aeruginosa. The assay is described as follows: Antibacterial activity against Pseudomonas aeruginosa ATCC 27853 after 24 hrs by geometric microdilution method. The class given is functional. The following applies: ATCC 27853, 24 h.
The subject of assay [9] is Pseudomonas aeruginosa. Briefly: Antibacterial activity against AAC6'-2a expressing Pseudomonas aeruginosa F03 after 24 hrs by geometric microdilution method. Format: functional. The following applies: F03, 24 h.
Assay [10] concerns Pseudomonas aeruginosa. Briefly: Antibacterial activity against MexXY expressing Pseudomonas aeruginosa PT629 after 24 hrs by geometric microdilution method. The class given is functional. The following applies: PT629, 24 h.
Assay [11] deals with Klebsiella pneumoniae. The assay is described as follows: Antibacterial activity against Klebsiella pneumoniae ATCC 700603 after 24 hrs by geometric microdilution method. Format: functional. The following applies: ATCC 700603, 24 h.
Assay [12] deals with Escherichia coli. Briefly: Antibacterial activity against AAC6'-2b expressing Escherichia coli PAZ505H8101 after 24 hrs by geometric microdilution method. The following applies: PAZ505H8101, 24 h. The class given is functional.
For assay [13], the system named is Escherichia coli. Briefly: Antibacterial activity against ANT2'-2a expressing Escherichia coli L58058.1 after 24 hrs by geometric microdilution method. Format: functional. Particulars: L58058.1, 24 h.
Assay [14] has as its system Pseudomonas aeruginosa. Briefly: Antibacterial activity against Pseudomonas aeruginosa PAO1 after 24 hrs by geometric microdilution method. Format: functional. The following applies: PAO1, 24 h.
Assay [15] relates to Pseudomonas aeruginosa. The assay is described as follows: Antibacterial activity against MexCD expressing Pseudomonas aeruginosa PA01 after 24 hrs by geometric microdilution method. Format: functional. Particulars: PA01, 24 h.
Assay [16] concerns Pseudomonas aeruginosa. The assay is described as follows: Antibacterial activity against MexEF expressing Pseudomonas aeruginosa PA03 after 24 hrs by geometric microdilution method. The class given is functional. The following applies: PA03, 24 h.
The test system of assay [17] is Pseudomonas aeruginosa. The assay is described as follows: Antibacterial activity against MexAB expressing Pseudomonas aeruginosa PA21 after 24 hrs by geometric microdilution method. The class given is functional. The following applies: PA21, 24 h.
Assay [18] relates to Pseudomonas aeruginosa. The assay is described as follows: Antibacterial activity against MexXY expressing Pseudomonas aeruginosa PA22 after 24 hrs by geometric microdilution method. The class given is functional. The following applies: PA22, 24 h.
Assay [19] concerns Pseudomonas aeruginosa. Briefly: Antibacterial activity against TriABC expressing MexAB, MexCD, MexEF, MexXY deleted Pseudomonas aeruginosa PA405 after 24 hrs by geometric microdilution method. Particulars: PA405, 24 h. The class given is functional.
Assay [20] deals with Pseudomonas aeruginosa. Briefly: Antibacterial activity against MexAB, MexCD, MexEF, MexXY, TriABC deleted Pseudomonas aeruginosa PA406 after 24 hrs by geometric microdilution method. Particulars: PA406, 24 h. The class given is functional.
The test system of assay [21] is Staphylococcus aureus. Briefly: Antibacterial activity against Staphylococcus aureus ATCC 25923 after 24 hrs by geometric microdilution method. The following applies: ATCC 25923, 24 h. Format: functional.
In assay [22] the test system is Staphylococcus aureus. The assay is described as follows: Antibacterial activity against NorA pump expressing Staphylococcus aureus after 24 hrs by geometric microdilution method. Format: functional.
The test system of assay [23] is Acinetobacter lwoffii. The assay is described as follows: microbe, parasite or virus in culture. The following applies: ATCC 17925, 24 h.
Description: Antibacterial activity against Acinetobacter lwoffii ATCC 17925 after 24 hrs by geometric microdilution method
For assay [24], the system named is Escherichia coli. Briefly: microbe, parasite or virus in culture. The following applies: ATCC 25922, 24 h.
Description: Antibacterial activity against Escherichia coli ATCC 25922 after 24 hrs by geometric microdilution method
Assay [25] deals with Citrobacter amalonaticus. Briefly: Antibacterial activity against R-methylase expressing Citrobacter amalonaticus 06AB0010 after 24 hrs by geometric microdilution method. Format: functional. The following applies: 06AB0010, 24 h.
In assay [26] the test system is Escherichia coli. Briefly: Antibacterial activity against R-methylase expressing Escherichia coli 06AB003 after 24 hrs by geometric microdilution method. The class given is functional. Particulars: 06AB003, 24 h.
The subject of assay [27] is Klebsiella aerogenes. The assay is described as follows: Antibacterial activity against R-methylase expressing Enterobacter aerogenes 06AB008 after 24 hrs by geometric microdilution method. Format: functional. The following applies: 06AB008, 24 h.

Converted amounts (≈) assume the structure as drawn.

As to `NC[C@H]1O[C@H](O[C@H]2[C@H](OCc3ccc4ccccc4c3)[C@@H](O)[C@H](N)C[C@@H]2N)[C@H](N)[C@@H](O)[C@@H]1OCc1ccc2ccccc2c1`, the MIC in assay [1] was determined as 128 µg/mL (≈ 212 µM); in assay [2], 128 µg/mL (≈ 212 µM); in assay [3], 32 µg/mL (≈ 53.1 µM); in [4] it was 128 µg/mL (≈ 212 µM); in assay [5], 64 µg/mL (≈ 106 µM); in assay [6], 64 µg/mL (≈ 106 µM). Also, the MIC in assay [7] was greater than 128 µg/mL; in [8] it was 128 µg/mL (≈ 212 µM); in assay [9], greater than 128 µg/mL; in [10], greater than 128 µg/mL; in assay [11], greater than 128 µg/mL; in [12], 128 µg/mL (≈ 212 µM). For the same molecule, the MIC in [13] is 128 µg/mL (≈ 212 µM); in [14], greater than 128 µg/mL; in [15] it was greater than 128 µg/mL; in assay [16], greater than 128 µg/mL; in [17], greater than 128 µg/mL; in [18] it was greater than 128 µg/mL. For the same molecule, the MIC in [19] amounted to 16 µg/mL (≈ 26.5 µM); in [20], 16 µg/mL (≈ 26.5 µM); in [21] it was 64 µg/mL (≈ 106 µM); in assay [22] it was 128 µg/mL (≈ 212 µM); in assay [23], 32 µg/mL (≈ 53.1 µM); in [24] it was 128 µg/mL (≈ 212 µM).
Turning to `NC[C@H]1O[C@H](O[C@H]2[C@H](O)[C@@H](O[C@H]3O[C@H](CO)[C@@H](O)[C@H](N)[C@H]3O)[C@H](N)C[C@@H]2N)[C@H](N)C[C@@H]1O` [TOBRAMYCIN], the MIC came out at 1 µg/mL (≈ 2.14 µM) in [7]; 0.5 µg/mL (≈ 1.07 µM) in [8]; 128 µg/mL (≈ 274 µM) in assay [9]; 1 µg/mL (≈ 2.14 µM) in [10]; 4 µg/mL (≈ 8.56 µM) in [11]; 32 µg/mL (≈ 68.4 µM) in [12]. Moreover, the MIC in assay [13] was 64 µg/mL (≈ 137 µM); in assay [14], 0.5 µg/mL (≈ 1.07 µM); in [15] it was 0.5 µg/mL (≈ 1.07 µM); in assay [16] it was less than 0.25 µg/mL; in [17] it was 0.5 µg/mL (≈ 1.07 µM); in [18], 1 µg/mL (≈ 2.14 µM). In addition, the MIC in assay [19] was less than 0.25 µg/mL; in assay [20] it was less than 0.25 µg/mL; in assay [25], greater than 128 µg/mL; in assay [26] it was greater than 128 µg/mL; in assay [27], greater than 128 µg/mL; in assay [23] it was 0.5 µg/mL (≈ 1.07 µM). The same molecule returned an MIC in assay [24] of 0.5 µg/mL (≈ 1.07 µM).
Take `NCC[C@H](O)C(=O)N[C@@H]1C[C@H](N)[C@@H](O[C@H]2O[C@H](CN)[C@@H](O)[C@H](O)[C@H]2O)[C@H](O)[C@H]1O[C@H]1O[C@H](CO)[C@@H](O)[C@H](N)[C@H]1O` [AMIKACIN]: the MIC was greater than 128 µg/mL in [7]; 2 µg/mL (≈ 3.42 µM) in assay [8]; 4 µg/mL (≈ 6.83 µM) in assay [9]; 8 µg/mL (≈ 13.7 µM) in [10]; 0.5 µg/mL (≈ 0.854 µM) in assay [11]; 32 µg/mL (≈ 54.6 µM) in assay [12]. Besides, the MIC was 2 µg/mL (≈ 3.42 µM) in [13]; 2 µg/mL (≈ 3.42 µM) in assay [14]; 2 µg/mL (≈ 3.42 µM) in assay [15]; 2 µg/mL (≈ 3.42 µM) in [16]; 2 µg/mL (≈ 3.42 µM) in [17]; 8 µg/mL (≈ 13.7 µM) in [18]. Further, the MIC in assay [19] is 0.5 µg/mL (≈ 0.854 µM); in assay [20] it was 1 µg/mL (≈ 1.71 µM); in assay [25], greater than 128 µg/mL; in [26], greater than 128 µg/mL; in assay [27], greater than 128 µg/mL; in assay [23], 0.5 µg/mL (≈ 0.854 µM). In assay [24], this molecule displayed an MIC of 4 µg/mL (≈ 6.83 µM).
Turning to `NC[C@H]1O[C@H](O[C@H]2[C@H](O)[C@@H](OCc3ccccc3)[C@H](N)C[C@@H]2N)[C@H](N)[C@@H](OCc2ccccc2)[C@@H]1OCc1ccccc1`, the MIC was greater than 128 µg/mL in [1]; greater than 128 µg/mL in assay [2]; greater than 128 µg/mL in assay [3]; greater than 128 µg/mL in [4]; greater than 128 µg/mL in [5]; 64 µg/mL (≈ 108 µM) in [6]. The MIC in [7], in assay [8], in assay [9], in assay [10], in assay [11] and in [12] was greater than 128 µg/mL each time. The MIC in assay [13], in assay [14], in assay [15], in [16], in [17] and in [18] was greater than 128 µg/mL each time. Also, the MIC in assay [19] was 64 µg/mL (≈ 108 µM); in assay [20], 64 µg/mL (≈ 108 µM); in assay [21], greater than 128 µg/mL; in assay [22] it was greater than 128 µg/mL; in assay [23] it was 128 µg/mL (≈ 216 µM); in assay [24], greater than 128 µg/mL.
